Test results reported in US20250099420A1, “SMALL MOLECULE MODULATORS OF GPR139 COMPLEX” (University of Florida Research Foundation, Incorporated, priority 2022, published 2025).
Where two headings read alike, the source gives them in different places.

Experiments:
GPR139 = molecular target: T1, GPR139 (Homo sapiens, UniProt Q6DWJ6); assay: GPR139 Agonist titration / agonist counterscreen assay (calcium detection, HEK-GPR139 cells); type: cell-based; parameters: expressed in transfected cells; host or cells: HEK Aequorin cells, Maxcyte transient transfection; conditions: GPR139 Agonist Activity; for Averaged Max % Response (±St. Dev.): activity relative to known control; for EC50: read-out: EC50
T1 sequence (Q6DWJ6 1-353): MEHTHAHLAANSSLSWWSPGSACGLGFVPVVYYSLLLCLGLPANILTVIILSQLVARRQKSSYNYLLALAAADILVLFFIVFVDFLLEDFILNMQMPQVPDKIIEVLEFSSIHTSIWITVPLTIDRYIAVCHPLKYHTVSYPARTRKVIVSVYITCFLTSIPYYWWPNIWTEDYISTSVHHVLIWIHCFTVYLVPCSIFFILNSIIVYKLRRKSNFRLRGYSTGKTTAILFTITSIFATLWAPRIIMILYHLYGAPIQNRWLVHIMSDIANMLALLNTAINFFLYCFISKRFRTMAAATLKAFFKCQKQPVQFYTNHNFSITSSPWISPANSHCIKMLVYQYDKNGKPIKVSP
Description: GPR activity was assessed using a calcium detection assay. […] Negative control samples were treated with DMSO. […] Intracellular calcium was measured using Calcium 5.

parental HEK cells = assay: HEK parental Agonist Counterscreen Assay (non-transfected cells); type: cell-based; conditions: for Averaged Max % Response (±St. Dev.): activity relative to known control
From the text: The high control for the agonist counterscreen was Forskolin not acetylcholine.

[1] = values printed in E-notation without unit
[2] = HEK Agonist Activity, parental non-transfected HEK cells
[3] = HEK Agonist Activity section of Table 4 (parental HEK counterscreen)
[4] = Homo sapiens, HEK293, HEK Agonist Activity, parental non-transfected HEK cells
[5] = Homo sapiens, HEK293, HEK Agonist Activity section of Table 4 (parental HEK counterscreen)

Row | Averaged Max % Response (±St. Dev.) (GPR139) | Lipophilic Efficiency (logD) (GPR139; based on logD) | Lipophilic Efficiency (logP) (GPR139; based on logP) | Hill Slope (GPR139; fitted dose-response curve) | Efficiency Ligand (GPR139; ligand efficiency) | EC50 (GPR139; [1]) | Lipophilic Efficiency (logD) (parental HEK cells; HEK Agonist Activity) | Lipophilic Efficiency (logP) (parental HEK cells; HEK Agonist Activity) | Lipophilic Efficiency (logD) (parental HEK cells; HEK Agonist Activity section) | Lipophilic Efficiency (logP) (parental HEK cells; HEK Agonist Activity section) | Efficiency Ligand (GPR139) | Hill Slope (GPR139) | Lipophilic Efficiency (logD) (GPR139) | Lipophilic Efficiency (logP) (GPR139) | EC50 (GPR139; HEK-GPR139 cells) | Compound | Averaged Max % Response (±St. Dev.) (parental HEK cells; HEK Agonist Activity) | Averaged Max % Response (±St. Dev.) (parental HEK cells; HEK Agonist Activity section) | EC50 (parental HEK cells; [5]) | other results
1 | 91.42 ± 14.52% | 2.69 | 2.69 | 1.13 | 0.32 | 38.7 nM | 0.13 | 0.13 | – | – | – | – | – | – | – | O=C(CC(c1ccccc1)c1ccccc1)Oc1coc(CSc2ncccn2)cc1=O [SR-01000020502] | 4.84 ± 4.90% | – | – | EC50 (parental HEK cells; [2]): > 13900 nM
2 | 126.00 ± 7.94% | 6.03 | 6.03 | – | 0.44 | > 0.779 nM | 1.73 | 1.73 | – | – | – | – | – | – | – | Cn1c(CC(=O)NNC(=O)CSc2ccc3ccccc3c2)nc2ccccc21 [SR-01000068729] | −3.41 ± 1.08% | – | – | EC50 (parental HEK cells; [2]): > 15300 nM
3 | 100.68 ± 11.72% | 3.60 | 3.60 | 0.73 | 0.43 | 160 nM | – | – | 1.65 | 1.65 | – | – | – | – | – | CCCc1cc(=O)n2[nH]c(NCc3ccccc3F)nc2n1 [SR-01000100493] | – | 4.54 ± 3.12% | – | EC50 (parental HEK cells; [3]): > 14100 nM
4 | 102.69 ± 7.41% | 4.95 | 4.94 | 0.31 | 0.44 | 7.9 nM | 1.69 | 1.69 | – | – | – | – | – | – | – | COc1ccccc1OCC(=O)NCCc1ccc2c(c1)CCCN2C [SR-01000911654] | −5.46 ± 4.05% | – | – | EC50 (parental HEK cells; [4]): > 14100 nM
5 | 123.40 ± 6.48% | 5.00 | 4.99 | 0.55 | 0.42 | 9.7 nM | 1.82 | 1.81 | – | – | – | – | – | – | – | O=C(COc1ccccc1F)NNC(=O)CSc1ccc2ccccc2c1 [SR-01000068761] | 4.98 ± 10.48% | – | – | EC50 (parental HEK cells; [4]): > 14700 nM
6 | 95.96 ± 5.70% | 6.98 | 4.61 | 1.09 | 0.54 | 131 nM | – | – | 4.95 | 2.58 | – | – | – | – | – | O=C(c1ccccc1)C1CCCCC1S(=O)(=O)O (centres unmarked) [SR-01000197834] | – | 18.65 ± 10.85% | > 14100 nM | –
7 | 117.27 ± 2.34% | – | – | – | – | – | – | – | 2.93 | 2.93 | 0.27 | 0.38 | 4.47 | 4.47 | 375 nM | CC12C=CC3(CN(Cc4ccccc4)C(=O)C3C1C(=O)NCC1COc3ccccc3O1)O2 (centres unmarked) [SR-01000582967] | – | −6.63 ± 2.99% | – | EC50 (parental HEK cells; [3]): > 13100 nM
8 | 84.68 ± 8.82% | 4.29 | 4.29 | 0.73 | 0.35 | 166 nM | – | – | 2.37 | 2.37 | – | – | – | – | – | CCn1c(=O)c([N+](=O)[O-])c(NCCc2ccc(OC)cc2)c2ccccc21 [SR-01000918303] | – | −6.52 ± 9.86% | – | EC50 (parental HEK cells; [3]): > 14100 nM
9 | 79.17 ± 5.74% | – | – | – | – | – | – | – | 1.72 | 1.72 | 0.32 | 1.25 | 3.01 | 3.01 | 727 nM | O=c1cc(-c2ccccc2)[nH]c2nc(OCc3cccc([N+](=O)[O-])c3)nn12 [SR-01000289377] | – | −0.70 ± 7.45% | > 14100 nM | –
10 | 94.25 ± 9.34% | 5.17 | 5.17 | 0.65 | 0.37 | – | – | – | 3.17 | 3.17 | – | – | – | – | – | C=C1CC(C)(c2ccc(OC)cc2)C(=C)C1CC(=O)CC1CCCCC1 (centres unmarked) [SR-01000918719] | – | 19.77 ± 4.52% | > 14100 nM | –
11 | 111.46 ± 12.99% | 5.36 | 5.36 | 0.33 | 0.48 | 5.9 nM | 1.98 | 1.98 | – | – | – | – | – | – | – | COc1cccc(C(=O)NNC(=O)COc2ccc(C)cc2Br)c1 [SR-01000369718] | 7.35 ± 13.00% | – | – | EC50 (parental HEK cells; [4]): > 14100 nM
12 | 88.97 ± 19.06% | 1.77 | 1.77 | 0.76 | 0.35 | 205 nM | – | – | −0.064 | −0.064 | – | – | – | – | – | Cc1cccc(NC(=S)NNC(=O)CSCc2cccc3ccccc23)c1 [SR-07000002775] | – | 2.05 ± 12.71% | > 14100 nM | –
13 | 90.41 ± 15.26% | – | – | – | – | – | – | – | 1.40 | 1.39 | 0.36 | 1.19 | 2.69 | 2.69 | 719 nM | Cc1ccc(CCC(=O)NNC(=O)CCc2ccccc2)c(Br)c1 [SR-01000313193] | – | 8.61 ± 6.03% | > 14100 nM | –
14 | 110.53 ± 3.36% | 4.41 | 4.41 | 0.71 | 0.50 | 16.3 nM | 1.46 | 1.46 | – | – | – | – | – | – | – | CCCCNC(=O)NNC(=O)CSc1cc(C)c(Br)cc1C [SR-01000061818] | 3.00 ± 9.38% | – | – | EC50 (parental HEK cells; [2]): > 14500 nM
15 | 79.45 ± 3.43% | – | – | – | – | – | – | – | 2.52 | 2.51 | 0.31 | 0.80 | 4.03 | 4.03 | 441 nM | COc1ccc2c(CC(=O)NNC(=O)c3cc(-c4ccccc4)no3)coc2c1 [SR-01000074979] | – | −0.33 ± 8.51% | > 14400 nM | –
16 | 114.02 ± 14.51% | – | – | – | – | – | – | – | 4.13 | 2.54 | 0.34 | 0.99 | 5.67 | 4.07 | 414 nM | CCCCC(O)CCNC(=O)C1CC(=O)N(CCc2ccc(C)cc2)C1 (centres unmarked) [SR-01000145701] | – | 10.54 ± 1.83% | > 14100 nM | –
